Data on 2 molecules can be found in article PMC4999848 (Toxins, 2016).

The target in one series is T1, pepsin (Sus scrofa, UniProt P00791).
T1 construct: purchased Sigma-Aldrich
The experiment in a line: Deacetylation of 3/15ADON by pepsin. Format: in vitro ADME, porcine. Particulars: for Disappearance of 3/15ADON, specific activity: pepsin 1.6 mg/mL, HCl 10 mM pH 2.3, 37 °C, substrate 100 μM; for Contribution to total deacetylation activity: Pepsin: percentage of sum of specific activities (Figure 8). How it is done: (§1) Stock solutions of DON, 3ADON and 15ADON at 2 mg/mL were prepared in absolute ethanol and stored at −20 °C. For deacetylation assay, 3- or 15ADON were incubated with cells, explants, bacteria or digestive enzymes after being diluted in PBS^++ at a final concentration of 100 μM. PBS^++ solution containing only ethanol (at 1.5% final concentration) or DON (at 100 μM) were used in parallel as negative and positive control, respectively. For cells and explants, deacetylation assay take place in 6-well plates, wells being filled with 2 mL of PBS^++ containing either ethanol, DON, 3- or 15ADON. For fecal bacteria and digestive enzyme assay, deacetylation assay was conducted in 2 mL Eppendorf tubes filled with 1.5 mL of PBS^++ containing either ethanol, DON, 3- or 15ADON. In vitro intestinal digestion by luminal enzymes was performed using porcine enzymes from Sigma-Aldrich and physiological conditions. Briefly, 3- or 15ADON were incubated with pepsin (at 1.6 mg/mL corresponding to 900 U/mL), trypsin (at 0.35 mg/mL corresponding to 6000 U/mL), pancreatic lipase (at 0.75 mg/mL corresponding to 18 U/mL) or pancreatin (at 1.23 mg/mL, lipase activity >10 U/mL, protease activity >100 U/mL, amylase activity >100 U/mL). Except for pepsin for which the digestion was conducted in HCl solution at 10 mM (pH 2.3), in vitro digestion was performed in PBS^++ (pH 7.4). Finally, deacetylation assay was also performed with commercial pooled S9 fractions from human liver, small intestine and kidneys as well as with pure recombinant human CES1 and CES2. S9 fractions and CES1/2 were used at 0.1 mg/mL and 5 μg/mL (corresponding to CES activity >20 U/mL), respectively. In all cases, aliquots of the reaction solution were collected immediately (i.e., “time zero” sample) or after the indicated time period at 37 °C and analyzed by HPLC. […] In all cases, the experiments were conducted in triplicate (n = 3).
Deacetylation was monitoring both in term of disappearance of 3- or 15ADON and formation of DON. Measurement of DON, 3ADON and 15ADON concentrations was performed by reversed-phase HPLC using Waters Alliance System equipped with a Waters 2690 XE separation module and a Waters 996 photodiode array detector (Waters, Saint Quentin Falavier, France). The separation was achieved by mean of a LiChroCart column (125 mm × 4 mm) packed with 5 μm RP-18 Purospher gel (Merck, Darmstadt, Germany) and equipped with a LiChroCart precolumn (4 mm × 4 mm) packed with the same material (Merck). The precolumn and column were placed in room temperature. […] Quantification was based on calibration with the corresponding standard using Millinium Software (Waters, Saint Quentin Falavier, France).

For the next series, the system named is human fecal bacteria. The experiment in a line: Deacetylation of 3/15ADON by human fecal bacteria. Format: in vitro ADME. Particulars: for Disappearance of 3/15ADON, specific activity: fecal bacteria, anaerobic, 37 °C, substrate 100 μM; for % of deacetylation: human fecal bacteria; for Contribution to total deacetylation activity: Bacteria: percentage of sum of specific activities (Figure 8). The procedure:
The whole procedure involving fecal bacteria (including the use of fecal bacteria for the deacetylation assay) was performed in an anaerobic cabinet (Coy Laboratory Products, Grass Lake, MI, USA). Human fecal bacteria were isolated from three volunteers (men) working in the department, 40–50 years of age. Stools were collected fresh in a sterile container and were immediately introduced into the anaerobic cabinet. Feces samples were taken by pushing a cut-off disposal 1 mL pipette tip into the inner part of the stools. Samples were then mechanically suspended in 9 mL of degassed PBS^++. Homogenates were allowed to decant for ten minutes to eliminate insoluble matter, and supernatants (1 mL aliquots) were transferred to sterile Eppendorf tubes and used for deacetylation assay.
as §1
Deacetylation was monitoring both in term of disappearance of 3- or 15ADON and formation of DON. Measurement of DON, 3ADON and 15ADON concentrations was performed by reversed-phase HPLC using Waters Alliance System equipped with a Waters 2690 XE separation module and a Waters 996 photodiode array detector (Waters, Saint Quentin Falavier, France). The separation was achieved by mean of a LiChroCart column (125 mm × 4 mm) packed with 5 μm RP-18 Purospher gel (Merck, Darmstadt, Germany) and equipped with a LiChroCart precolumn (4 mm × 4 mm) packed with the same material (Merck). The precolumn and column were placed in room temperature. The elution procedure was carried out at 0.7 mL·min^−1 by a methanol–water solvent, using the following conditions: 40% methanol during 2 min followed by an increase in methanol to 50% at 2.1 min.

In another series the test system is Caco-2 cells. The experiment in a line: Deacetylation of 3/15ADON by Caco-2 cells. The series is classed as in vitro ADME, human. The settings on record: for Disappearance of 3/15ADON, specific activity: Caco-2, 37 °C, substrate 100 μM; for % deacetylated: Caco-2, 6 h incubation, 100 μM. How it is done:
(§2) A498, Caco-2, T84 and HepG2 cells were used as models of human renal, small intestinal, colonic and hepatic cells, respectively. Cells were routinely grown in culture media (Dulbecco’s Modified Eagle Medium (DMEM), DMEM:F12 mixture and Minimum Essential Media (MEM) for A498/Caco-2, T84 and HepG2 cells, respectively) supplemented with 10% fetal calf serum and 1% antibiotics (streptomycin–penicillin solution). Cells were grown in 25 cm^2 ventilated flask maintained at 37 °C in a 5% CO2 incubator. Cells were routinely passed using trypsin-EDTA solution. For deacetylation experiments, cells were seeded onto 6-well plates at an initial density of 200,000 cells/cm^2. HepG2 and A498 were used 3–4 days post-seeding when confluence was reached. Caco-2 and T84 cells were let to differentiate for 10–14 days post-seeding before being used. In all cases, cells were washed three times with sterile phosphate buffer saline PBS^++ (PBS containing 100 mg/L of calcium and magnesium salts) before deacetylation assay.
(§3) Stock solutions of DON, 3ADON and 15ADON at 2 mg/mL were prepared in absolute ethanol and stored at −20 °C. For deacetylation assay, 3- or 15ADON were incubated with cells, explants, bacteria or digestive enzymes after being diluted in PBS^++ at a final concentration of 100 μM. PBS^++ solution containing only ethanol (at 1.5% final concentration) or DON (at 100 μM) were used in parallel as negative and positive control, respectively. For cells and explants, deacetylation assay take place in 6-well plates, wells being filled with 2 mL of PBS^++ containing either ethanol, DON, 3- or 15ADON. For fecal bacteria and digestive enzyme assay, deacetylation assay was conducted in 2 mL Eppendorf tubes filled with 1.5 mL of PBS^++ containing either ethanol, DON, 3- or 15ADON. In vitro intestinal digestion by luminal enzymes was performed using porcine enzymes from Sigma-Aldrich and physiological conditions. Briefly, 3- or 15ADON were incubated with pepsin (at 1.6 mg/mL corresponding to 900 U/mL), trypsin (at 0.35 mg/mL corresponding to 6000 U/mL), pancreatic lipase (at 0.75 mg/mL corresponding to 18 U/mL) or pancreatin (at 1.23 mg/mL, lipase activity >10 U/mL, protease activity >100 U/mL, amylase activity >100 U/mL). Except for pepsin for which the digestion was conducted in HCl solution at 10 mM (pH 2.3), in vitro digestion was performed in PBS^++ (pH 7.4). Finally, deacetylation assay was also performed with commercial pooled S9 fractions from human liver, small intestine and kidneys as well as with pure recombinant human CES1 and CES2. […] In all cases, aliquots of the reaction solution were collected immediately (i.e., “time zero” sample) or after the indicated time period at 37 °C and analyzed by HPLC. […]

The subject of the next series is HepG2 cells. The experiment in a line: Deacetylation of 3/15ADON by HepG2 cells. Format: in vitro ADME, human. Particulars: for Disappearance of 3/15ADON, specific activity: HepG2, 37 °C, substrate 100 μM; for % deacetylated: HepG2, 6 h incubation, 100 μM. How it is done:
as §2, §3

SMILES strings stand for the structures. “And” between values parts separate entries of the source, which are not always exact repeats. Identical values can stand only once.

T1 sequence (P00791 60-385): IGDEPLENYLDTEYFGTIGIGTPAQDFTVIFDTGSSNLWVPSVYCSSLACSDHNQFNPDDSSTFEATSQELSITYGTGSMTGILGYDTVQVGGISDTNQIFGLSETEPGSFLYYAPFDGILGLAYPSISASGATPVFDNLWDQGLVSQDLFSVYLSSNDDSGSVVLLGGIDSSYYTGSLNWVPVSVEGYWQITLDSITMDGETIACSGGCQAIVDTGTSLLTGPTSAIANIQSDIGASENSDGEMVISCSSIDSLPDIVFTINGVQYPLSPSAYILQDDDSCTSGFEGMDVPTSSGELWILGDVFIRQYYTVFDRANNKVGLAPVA

In the case of `CC(=O)O[C@@H]1C[C@]2(C)[C@@]3(CO)[C@H](O)C(=O)C(C)=C[C@H]3O[C@H]1[C@@]21CO1` [3ADON, 3-acetyldeoxynivalenol], the “Disappearance of 3/15ADON, specific activity” value on pepsin is 34 ± 7.5 pmol/min/mg; in the series on human fecal bacteria it was 34 ± 0.9 pmol/min/mg; in the series on Caco-2 cells, 479 pmol/min/mg and 479 ± 97 pmol/min/mg; with HepG2 cells, 902 pmol/min/mg and 902 ± 78 pmol/min/mg. Besides, on pepsin, the “Contribution to total deacetylation activity: Pepsin” value amounted to 3%. For the same molecule, the “% of deacetylation” value with human fecal bacteria (6 h incubation, 100 μM) was 22.6% ± 15.9%; with human fecal bacteria (48 h incubation), 82.1% ± 21.9%. Moreover, in the series on human fecal bacteria, the “Contribution to total deacetylation activity: Bacteria” value is recorded as 2.6%. For the same molecule, the “% deacetylated” value is 69.1% ± 14.3% with Caco-2 cells and 52.1% ± 4.5% with HepG2 cells.
Regarding `CC(=O)OC[C@]12[C@H](O)C(=O)C(C)=C[C@H]1O[C@@H]1[C@H](O)C[C@@]2(C)[C@]12CO2` [15ADON, 15-acetyldeoxynivalenol], the “Disappearance of 3/15ADON, specific activity” value on pepsin is 40 ± 4.5 pmol/min/mg; in the series with human fecal bacteria it was 5.8 ± 1.3 pmol/min/mg; with Caco-2 cells, 152 pmol/min/mg and 152 ± 38 pmol/min/mg; in the series on HepG2 cells, 295 pmol/min/mg and 295 ± 41 pmol/min/mg. Besides, the “Contribution to total deacetylation activity: Pepsin” value at pepsin was 7%. Further, the “% of deacetylation” value with human fecal bacteria (6 h incubation, 100 μM) is listed as “no activity”; with human fecal bacteria (48 h incubation) it was 14.9% ± 3.2%. The “Contribution to total deacetylation activity: Bacteria” value with human fecal bacteria was found to be 0.9%. Moreover, the entries for the “% deacetylated” value in the series on Caco-2 cells and in the series on HepG2 cells were 22.4% ± 5.5% and 16.8% ± 2.4%, respectively.
